Counter-ions that a name gives are not always drawn.
Each compound was assayed against T1, TLR7/NFKb HEK cells (Homo sapiens, UniProt Q9NYK1) (assay: HEK Cell Assay (TLR7/NFKb reporter, Steady-Glo luciferase readout)). Details: 30 min compound preincubation, then R*48 agonist for 5 hours, read-out: Potency.
T1 construct: expressed in transfected cells; host or cells: HEK cells (TLR7/NFKb reporter line)
T1 sequence (Q9NYK1 27-1049): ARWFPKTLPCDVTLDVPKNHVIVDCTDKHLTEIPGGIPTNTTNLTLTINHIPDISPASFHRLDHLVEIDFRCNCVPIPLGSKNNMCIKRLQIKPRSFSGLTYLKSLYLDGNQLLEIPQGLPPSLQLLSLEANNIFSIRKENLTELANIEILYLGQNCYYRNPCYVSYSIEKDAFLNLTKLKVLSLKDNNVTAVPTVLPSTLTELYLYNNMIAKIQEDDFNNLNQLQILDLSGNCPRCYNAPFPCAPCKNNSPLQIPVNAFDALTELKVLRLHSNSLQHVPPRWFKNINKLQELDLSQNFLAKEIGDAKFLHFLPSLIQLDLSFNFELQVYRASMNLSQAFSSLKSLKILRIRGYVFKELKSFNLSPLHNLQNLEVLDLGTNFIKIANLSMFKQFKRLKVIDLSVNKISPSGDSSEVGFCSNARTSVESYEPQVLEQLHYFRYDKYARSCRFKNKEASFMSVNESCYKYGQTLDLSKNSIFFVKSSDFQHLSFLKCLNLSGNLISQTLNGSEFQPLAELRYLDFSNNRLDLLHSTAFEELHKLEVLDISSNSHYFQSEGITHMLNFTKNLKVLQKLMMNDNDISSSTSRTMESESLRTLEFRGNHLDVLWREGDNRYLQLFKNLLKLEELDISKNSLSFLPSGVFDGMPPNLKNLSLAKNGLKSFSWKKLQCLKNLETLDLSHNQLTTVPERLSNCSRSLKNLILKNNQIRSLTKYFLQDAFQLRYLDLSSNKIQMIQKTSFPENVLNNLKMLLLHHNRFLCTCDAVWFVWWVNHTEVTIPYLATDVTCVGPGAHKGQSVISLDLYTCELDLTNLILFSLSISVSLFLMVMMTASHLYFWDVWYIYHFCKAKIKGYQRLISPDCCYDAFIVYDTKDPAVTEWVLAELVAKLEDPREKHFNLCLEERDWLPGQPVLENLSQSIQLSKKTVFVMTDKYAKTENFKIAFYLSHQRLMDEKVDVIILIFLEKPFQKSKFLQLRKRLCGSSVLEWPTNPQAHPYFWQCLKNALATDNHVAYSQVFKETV
Assay type: cell-based
Outline: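 Steady-Glo luminescence after 5 h stimulation with R*48 agonist, following 30 min compound preincubation. Assay run in HEK cells carrying a TLR7/NFKb luciferase reporter, plated at 5000 cells/well and grown 24 h at 37° C (10% CO2) before treatment.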

`C[C@H]1C[C@@H](NC(=O)C(C)(C)C2CCN(C)CC2)CN(c2ccc(C#N)c3nccnc23)C1` [Compound 349, N-[(3R,5S)-1-(8-cyanoquinoxalin-5-yl)-5-methylpiperidin-3-yl]-2-methyl-2-(1-methylpiperidin-4-yl)propanamide] and `C[C@H]1C[C@@H](NC(=O)CC2(C)CCN(C)CC2)CN(c2ccc(C#N)c3nccnc23)C1` [Compound 233, N-[(3R,5S)-1-(8-cyanoquinoxalin-5-yl)-5-methylpiperidin-3-yl]-2-(1,4-dimethylpiperidin-4-yl)acetamide] cannot be ordered by IC50: less than 1000 nM for the first, less than 1000 nM for the second.

`CC(C)C(C)C(=O)N[C@@H]1C[C@H](C)CN(c2ccc(C#N)c3nccnc23)C1` (stereo partly drawn) [Compound 167, N-[(3R,5S)-1-(8-cyanoquinoxalin-5-yl)-5-methylpiperidin-3-yl]-2,3-dimethylbutanamide] and `C[C@H]1C[C@@H](NC(=O)[C@@H](C)N)CN(c2ccc(C#N)c3nccnc23)C1` [Compound 24, (R)-2-amino-N-((3R,5S)-1-(8-cyanoquinoxalin-5-yl)-5-methylpiperidin-3-yl)propanamide] cannot be ordered by IC50: less than 1000 nM for the first, less than 1000 nM for the second.

First: C[C@@H]1CN(c2ccnc3nccnc23)C[C@H](CN2CCN(C)[C@@H](C)C2)O1 [Compound 53, (2S,6R)-2-(((S)-3,4-dimethylpiperazin-1-yl)methyl)-6-methyl-4-(pyrido[2,3-b]pyrazin-8-yl)morpholine]
Second: C[C@H]1C[C@@H](NCC#N)CN(c2ccnc3nccnc23)C1 [Compound 39, 2-((3R,5S)-5-methyl-1-(pyrido[2,3-b]pyrazin-8-yl)piperidin-3-ylamino)acetonitrile hydrochloride]
The IC50 of the first is lower: less than 1000 nM for the first, 1000 to 10000 nM for the second. The first is the more potent here.

`C[C@H]1C[C@@H](NC(=O)CC2CC2(F)F)CN(c2ccc(C(F)(F)F)c3nccnc23)C1` (stereo partly drawn) [Compound 298, 2-(2,2-difluorocyclopropyl)-N-[(3R,5S)-5-methyl-1-[8-(trifluoromethyl)quinoxalin-5-yl]piperidin-3-yl]acetamide] and `C[C@H]1C[C@@H](NC(=O)CC2(C)CCN(C)CC2)CN(c2ccc(C(F)(F)F)c3nccnc23)C1` [Compound 255, 2-(1,4-dimethylpiperidin-4-yl)-N-[(3R,5S)-5-methyl-1-[8-(trifluoromethyl)quinoxalin-5-yl]piperidin-3-yl]acetamide] cannot be ordered by IC50: less than 1000 nM for the first, less than 1000 nM for the second.

Compared with `CC1CC(CN2CCN(C)CC2)CN(c2ccc(C(F)(F)F)c3ncccc23)C1` (single isomer, unassigned) [Compound 534, trans-5-[3-Methyl-5-(4-methyl-piperazin-1-ylmethyl)-piperidin-1-yl]-8-trifluoromethyl-quinoline], `C[C@H]1C[C@@H](NC(=O)CN2CCN(C)CC2)CN(c2ccc(C(F)(F)F)c3ncccc23)C1` [Compound 243, N-[(3R,5S)-5-methyl-1-[8-(trifluoromethyl)quinolin-5-yl]piperidin-3-yl]-2-(4-methylpiperazin-1-yl)acetamide] is lower in IC50: 1000 to 10000 nM for the first, less than 1000 nM for the second.

`CN1CCC(NC2CC(C(F)(F)F)CN(c3ccc(C#N)c4nccnc34)C2)C1=O` (single isomer, unassigned) [Compound 225] and `N#Cc1ccc(N2CC(NC(=O)C(N)C(F)(F)F)CC(C3CC3)C2)c2nccnc12` (single isomer, unassigned) [Compound 178] fall in the same range of IC50: 1000 to 10000 nM for the first, 1000 to 10000 nM for the second.

Compared with `CC(C)(C)CC(=O)N[C@H]1C[C@@H](C2CC2)CN(c2ccc(C#N)c3nccnc23)C1` (relative stereo) [Compound 175, cis-N-[1-(8-cyanoquinoxalin-5-yl)-5-cyclopropylpiperidin-3-yl]-3,3-dimethylbutanamide], `C[C@H]1C[C@@H](NC(=O)CC(C)(C)CN)CN(c2ccc(C#N)c3nccnc23)C1` [Compound 277, 4-amino-N-[(3R,5S)-1-(8-cyanoquinoxalin-5-yl)-5-methylpiperidin-3-yl]-3,3-dimethylbutanamide] is lower in IC50: 1000 to 10000 nM for the first, less than 1000 nM for the second.

Compared with `COc1ccc(N2C[C@@H](N)C[C@@H](C3CC3)C2)c2cccnc12` (relative stereo) [Compound 334, cis-5-cyclopropyl-1-(8-methoxyquinolin-5-yl)piperidin-3-amine], `N#Cc1ccc(N2CC(N)CC(C3CC3)C2)c2nccnc12` (single isomer, unassigned) [Compound 69, 8-(3-amino-5-cyclopropylpiperidin-1-yl)quinoxaline-5-carbonitrile] is higher in IC50: less than 1000 nM for the first, 1000 to 10000 nM for the second. The first is the more potent here.

`C[C@H]1C[C@@H](NC(=O)CN2CCCN(C)CC2)CN(c2ccc(C(F)F)c3nccnc23)C1` [Compound 326, N-[(3R,5S)-1-[8-(difluoromethyl)quinoxalin-5-yl]-5-methylpiperidin-3-yl]-2-(4-methyl-1,4-diazepan-1-yl)acetamide] and `C[C@H]1C[C@@H](NC(=O)CC2CCCN(C)C2)CN(c2ccc(C(F)(F)F)c3ncccc23)C1` (stereo partly drawn) [Compound 279, N-[(3R,5S)-5-methyl-1-[8-(trifluoromethyl)quinolin-5-yl]piperidin-3-yl]-2-(1-methylpiperidin-3-yl)acetamide] cannot be ordered by IC50: less than 1000 nM for the first, less than 1000 nM for the second.

`CN1CCC(CC(=O)N[C@H]2C[C@@H](C(F)(F)F)CN(c3ccc(C#N)c4ncccc34)C2)CC1` (relative stereo) [Compound 478, cis-N-[1-(8-Cyano-quinolin-5-yl)-5-trifluoromethyl-piperidin-3-yl]-2-(1-methyl-piperidin-4-yl)-acetamide] and `CN(C)CC(=O)N[C@H]1C[C@@H](C(F)(F)F)CN(c2ccc(C#N)c3ncccc23)C1` (racemic) [Compound 426, cis-N-[1-(8-Cyano-quinolin-5-yl)-5-trifluoromethyl-piperidin-3-yl]-2-dimethylamino-acetamide] cannot be ordered by IC50: less than 1000 nM for the first, less than 1000 nM for the second.

`CN1CCCC1C(=O)NCC1CCN(c2ccc(C#N)c3ncccc23)CC1` (centres unmarked) [Compound 418, 1-Methyl-pyrrolidine-2-carboxylic acid [1-(8-cyano-quinolin-5-yl)-piperidin-4-ylmethyl]-amide] and `CC(C)(C)NCC(=O)NCC1CCN(c2ccc(C#N)c3ncccc23)CC1` [Compound 413, 2-tert-Butylamino-N-[1-(8-cyano-quinolin-5-yl)-piperidin-4-ylmethyl]-acetamide] cannot be ordered by IC50: less than 1000 nM for the first, less than 1000 nM for the second.

First: Cc1ncc(N2C[C@@H](C)C[C@@H](NC(=O)[C@@H](N)C3CC3)C2)c2cccnc12 [Compound 562, (S)-2-Amino-2-cyclopropyl-N-[(3R,5S)-5-methyl-1-(8-methyl-[1,7]naphthyridin-5-yl)-piperidin-3-yl]-acetamide]
Second: C[C@H]1C[C@@H](NC(=O)C(N)C(F)(F)F)CN(c2ccc(C(F)F)c3ncccc23)C1 (single isomer, unassigned) [Compound 207]
The IC50 of the first is lower: less than 1000 nM for the first, 1000 to 10000 nM for the second.

`N#Cc1ccc(N2CC(NC(=O)CC3(N)CCOCC3)CC(C(F)(F)F)C2)c2cccnc12` (racemic) [Compound 493, 2-(4-Amino-tetrahydro-pyran-4-yl)-N-[1-(8-cyano-quinolin-5-yl)-5-trifluoromethyl-piperidin-3-yl]-acetamide hydrochloride] and `C[C@H]1C[C@@H](NC(=O)CC(C)(C)O)CN(c2ccc(C(F)(F)F)c3ncccc23)C1` [Compound 485] cannot be ordered by IC50: less than 1000 nM for the first, less than 1000 nM for the second.

Compared with `Cc1cc2c(N3C[C@@H](C)O[C@@H](C)C3)ccnc2n1C` [Compound 46, (2S,6R)-4-(1,2-dimethyl-1H-pyrrolo[2,3-b]pyridin-4-yl)-2,6-dimethylmorpholine], `Cc1cc(F)c(N2C[C@@H](C)C[C@@H](N)C2)c2cccnc12` [Compound 489, (3R,5S)-1-(6-Fluoro-8-methyl-quinolin-5-yl)-5-methyl-piperidin-3-ylamine] is lower in IC50: greater than 10000 nM for the first, less than 1000 nM for the second. The second is the more potent here.

Compared with `CC1(C)C[C@@H](NC(=O)C(N)C(F)(F)F)CN(c2ccc(C#N)c3nccnc23)C1` (single isomer, unassigned) [Compound 212], `CC1(C)C[C@@H](N)CN(c2ccc(C#N)c3nccnc23)C1` [Compound 210, 8-[(5R)-5-amino-3,3-dimethylpiperidin-1-yl]quinoxaline-5-carbonitrile hydrochloride] is lower in IC50: 1000 to 10000 nM for the first, less than 1000 nM for the second.

`C[C@H]1C[C@@H](NC2COC2)CN(c2ccc(C#N)c3nccnc23)C1` [Compound 137, 8-[(3S,5R)-3-methyl-5-[(oxetan-3-yl)amino]piperidin-1-yl]quinoxaline-5-carbonitrile] and `COCCN[C@@H]1C[C@H](C)CN(c2ccc(OC)c3nccnc23)C1` [Compound 67, (3R,5S)—N-(2-methoxyethyl)-1-(8-methoxyquinoxalin-5-yl)-5-methylpiperidin-3-amine] cannot be ordered by IC50: less than 1000 nM for the first, less than 1000 nM for the second.

Source: patent publication US10947213B1 (Merck Patent GmbH, priority 2015, dated 2021)
